Source: patent US9320753B2, “Organ arrest, protection and preservation” (priority 1999, dated 2016)

Key:
[1] = cited from earlier work
[2] = tested on: isolated working rat heart; test: Lignocaine alone in the isolated working rat heart; settings: lignocaine alone at 0.5, 1.0 and 1.5 mM
Text: Lignocaine is a local anaesthetic which blocks sodium fast channels and has antiarrhythmatic properties by reducing the magnitude of inward sodium current. The accompanying shortening of the action potential is thought to directly reduce calcium entry into the cell via Ca^2+ selective channels and Na^+/Ca^2+ exchange. Recent reports also implicate lignocaine with the scavenging of free radicals such as hydroxyl and singlet oxygen in the heart during reperfusion.

[3] = requires a carrier (DMSO); cited from earlier work
[4] = tested on: heart; test: Arrest with pinacidil plus local anaesthetics (Example 7); settings: arrest solutions with local anaesthetics
Method: Arrest solutions were made with pinacidil dissolved in 0.05% dimethysulfoxide (DMSO) (200 μM) the local anaesthetics prilocalne, procaine, mepivacaine and lignocaine in Krebs-Henseleit solution.

SMILES: Nc1ncnc2c1ncn2[C@@H]1O[C@H](CO)[C@@H](O)[C@H]1O [adenosine]
- half life in the blood [1]: about 10 seconds

SMILES: CCN(CC)CC(=O)Nc1c(C)cccc1C [lignocaine]
- functional recoveries [2]: highly variable functional recoveries

SMILES: CC(N/C(=N\C#N)Nc1ccncc1)C(C)(C)C (stereo not shown) [pinacidil]
- solubility in aqueous solutions [3]: low solubility in aqueous solutions
- effectiveness compared with adenosine [4]: not as effective as adenosine
